Measurements reported in ChEMBL document CHEMBL5506050, “Discovery of Oral AMP-Activated Protein Kinase Activators for Treating Hyperlipidemia” (J Med Chem, 2024).
The source made the active and inactive calls. The calls are words filed in the database; no cut-off is given here.

What was measured:
[1] = tested on: Syrian golden hamster; assay: Effect on serum TG level in high-fat diet-fed golden hamster harboring LDLR-/- at 50 to 200 mg/kg, po qd administered via gavage measured after 8 weeks; type: functional, organism-based; details: Mesocricetus auratus, dose 50-200 mg/kg
[2] = tested on: Mus musculus; assay: Downregulation of Dhcr7 mRNA level in liver of high-fat diet-fed C57BL/6 mouse model at 200 mg/kg, po for 4 weeks by GO analysis; type: functional, organism-based
[3] = tested on: Mus musculus; assay: Downregulation of Ctgf mRNA level in liver of high-fat diet-fed C57BL/6 mouse model at 200 mg/kg, po for 4 weeks by GO analysis; type: functional, organism-based
[4] = Cmax in male Rhesus monkey at 70 mg/kg, po or 7 mg/kg, iv measured for 36 hrs by LC-tandem MS analysis; type: ADME, organism-based, Macaca mulatta; details: in vivo
[5] = Stability in human liver microsomes assessed as hepatic clearance at 1 uM measured for 60 mins in presence of NADPH by LC-MS/MS analysis; type: ADME, Microsome
[6] = tested on: Mus musculus; assay: Downregulation of Mvd mRNA level in liver of high-fat diet-fed C57BL/6 mouse model at 200 mg/kg, po for 4 weeks by GO analysis; type: functional, organism-based
[7] = tested on: Syrian golden hamster; assay: Lipid lowering effect on high-fat diet-fed golden hamster assessed as decrease in serum LDL-C level at 50 mg/kg, po qd administered via gavage measured after 4 weeks relative to control; type: functional, Mesocricetus auratus; design: scale not given: the % may be the effect or the level left
[8] = Oral bioavailability in female Rhesus monkey at 70 mg/kg measured for 36 hrs by LC-tandem MS analysis; type: ADME, organism-based, Macaca mulatta; details: in vivo
[9] = tested on: Syrian golden hamster; assay: Lipid lowering effect on high-fat diet-fed golden hamster assessed as decrease in serum TG level administered orally once daily via gavage measured after 4 weeks measured after 4 weeks; type: functional, organism-based; details: Mesocricetus auratus, dose 50-200 mg/kg, route po
[10] = AUC (0 to t) in male Rhesus monkey at 70 mg/kg, po or 7 mg/kg, iv measured for 36 hrs by LC-tandem MS analysis; type: ADME, organism-based, Macaca mulatta; details: in vivo
[11] = tested on: Mus musculus; assay: Downregulation of Ccl2 mRNA level in liver of high-fat diet-fed C57BL/6 mouse model at 200 mg/kg, po for 4 weeks by GO analysis; type: functional, organism-based
[12] = tested on: Mus musculus; assay: Upregulation of Gadd45b mRNA level in liver of high-fat diet-fed C57BL/6 mouse model at 200 mg/kg, po for 4 weeks by GO analysis; type: functional, organism-based
[13] = tested on: Mus musculus; assay: Downregulation of Pparg mRNA level in liver of high-fat diet-fed C57BL/6 mouse model at 200 mg/kg, po for 4 weeks by GO analysis; type: functional, organism-based
[14] = tested on: Syrian golden hamster; assay: Lipid lowering effect on high-fat diet-fed golden hamster assessed as decrease in serum TC level at 6 mg/kg, po qd administered via gavage measured after 4 weeks relative to control; type: functional, Mesocricetus auratus; design: scale not given: the % may be the effect or the level left
[15] = tested on: Mus musculus; assay: Effect on Ptafr mRNA level in liver of diet-induced obese C57BL/6 mouse model harboring AMPKalpha LS-/- at 200 mg/kg, po for 4 weeks by GO analysis; type: functional, organism-based
[16] = tested on: Mus musculus; assay: Effect on Pparg mRNA level in liver of diet-induced obese C57BL/6 mouse model harboring AMPKalpha LS-/- at 200 mg/kg, po for 4 weeks by GO analysis; type: functional, organism-based
[17] = tested on: Mus musculus; assay: Effect on Sdf2l1 mRNA level in liver of diet-induced obese C57BL/6 mouse model harboring AMPKalpha LS-/- at 200 mg/kg, po for 4 weeks by GO analysis; type: functional, organism-based
[18] = tested on: Mus musculus; assay: Downregulation of Ccr2 mRNA level in liver of high-fat diet-fed C57BL/6 mouse model at 200 mg/kg, po for 4 weeks by GO analysis; type: functional, organism-based
[19] = tested on: Mus musculus; assay: Lipid lowering effect on high-fat diet-fed Kunming mouse assessed as serum total cholesterol level at 50 mg/kg, po qd via gavage for 7 days consecutively (reference value: 159.3 +/- 11.5 mg/dl); type: functional; details: time 7 day
[20] = tested on: Mus musculus; assay: Effect on Dnajb9 mRNA level in liver of diet-induced obese C57BL/6 mouse model harboring AMPKalpha LS-/- at 200 mg/kg, po for 4 weeks by GO analysis; type: functional, organism-based
[21] = species: Homo sapiens; assay: Downregulation of serum LDL-C level in human at 2000 mg bid for 7 days; type: functional; details: time 7.0 day
[22] = tested on: Mus musculus; assay: Effect on Ccr2 mRNA level in liver of diet-induced obese C57BL/6 mouse model harboring AMPKalpha LS-/- at 200 mg/kg, po for 4 weeks by GO analysis; type: functional, organism-based
[23] = Stability in human Caco-2 cells assessed as compound remaining at 10 ug/ml measured after 2 hrs by LC-MS/MS analysis; type: ADME, cell-based; details: at 10 µg/mL, read-out: Stability
[24] = tested on: Mus musculus; assay: Lipid lowering effect on high-fat diet-fed C57BL/6J mouse assessed as decrease in serum LDL-C level at 40 mg/kg/day, po administered via gavage measured after 7 days relative to control; type: functional; design: scale not given: the % may be the effect or the level left; details: time 7 day
[25] = Efflux ratio of apparent permeability across basal to apical side over apical to basal side in human Caco-2 cells at 2 uM incubated for 2 hrs by LC-MS/MS analysis; type: ADME, cell-based
[26] = tested on: Mus musculus; assay: Effect on Cidea mRNA level in liver of diet-induced obese C57BL/6 mouse model harboring AMPKalpha LS-/- at 200 mg/kg, po for 4 weeks by GO analysis; type: functional, organism-based
[27] = Cmax in female Rhesus monkey at 70 mg/kg, po or 7 mg/kg, iv measured for 36 hrs by LC-tandem MS analysis; type: ADME, organism-based, Macaca mulatta; details: in vivo
[28] = Half life in female Rhesus monkey at 70 mg/kg, po or 7 mg/kg, iv measured for 36 hrs by LC-tandem MS analysis; type: ADME, organism-based, Macaca mulatta; details: in vivo
[29] = Stability in human Caco-2 cells assessed as compound remaining at 10 ug/ml measured after 1 hr by LC-MS/MS analysis; type: ADME, cell-based; details: at 10 µg/mL, read-out: Stability
[30] = Half life in male Rhesus monkey at 70 mg/kg, po or 7 mg/kg, iv measured for 36 hrs by LC-tandem MS analysis; type: ADME, organism-based, Macaca mulatta; details: in vivo
[31] = tested on: Syrian golden hamster; assay: Lipid lowering effect on high-fat diet-fed golden hamster assessed as decrease in AST level in liver at 50 to 200 mg/kg, po qd administered via gavage measured after 4 weeks; type: functional, organism-based; details: Mesocricetus auratus, dose 50-200 mg/kg
[32] = tested on: Syrian golden hamster; assay: Lipid lowering effect on high-fat diet-fed golden hamster harboring LDLR-/- assessed as decrease in serum TC level at 200 mg/kg, po qd administered via gavage measured after 8 weeks relative to control; type: functional, Mesocricetus auratus; design: scale not given: the % may be the effect or the level left
[33] = tested on: Mus musculus; assay: Effect on Gadd45b mRNA level in liver of diet-induced obese C57BL/6 mouse model harboring AMPKalpha LS-/- at 200 mg/kg, po for 4 weeks by GO analysis; type: functional, organism-based
[34] = tested on: Mus musculus; assay: Upregulation of Lepr mRNA level in liver of high-fat diet-fed C57BL/6 mouse model at 200 mg/kg, po for 4 weeks by GO analysis; type: functional, organism-based
[35] = tested on: Syrian golden hamster; assay: Lipid lowering effect on high-fat diet-fed golden hamster harboring LDLR-/- assessed as decrease in serum LDL-C level at 200 mg/kg, po qd administered via gavage measured after 8 weeks relative to control; type: functional, Mesocricetus auratus; design: scale not given: the % may be the effect or the level left
[36] = tested on: Mus musculus; assay: Effect on Ctgf mRNA level in liver of diet-induced obese C57BL/6 mouse model harboring AMPKalpha LS-/- at 200 mg/kg, po for 4 weeks by GO analysis; type: functional, organism-based
[37] = Acute toxicity in golden hamster administered orally measured for 14 days; design: species or system Mesocricetus auratus; details: in vivo, route po, time 14 day

CC(=O)OC[C@H]1O[C@@H](n2cnc3c(Nc4cccc(O)c4)ncnc32)[C@H](OC(C)=O)[C@@H]1OC(C)=O
Activity [1]: inactive | Activity [2]: Active | Activity [3]: Active | Cmax [4]: 20.4 ng/mL | CLhep predicted at 1 µM [5]: 19.9 mL/min/kg | Activity [6]: Active | Activity [7]: 10.5% | bioavailability [8]: 3.75% | Activity [9]: Dose-Dependent Effect | AUC(0-t) at 36 h [10]: 109 ng·h/mL | Activity [11]: Active | Activity [12]: Active | Activity [13]: Active | Activity [14]: 24.8% | Activity [15]: inactive | Activity [16]: inactive | Activity [17]: inactive | Activity [18]: Active | Activity [19]: 151.7 mg/dL | Activity [20]: inactive | Activity [21]: Active | Activity [22]: inactive | remaining at 2 h, 10 ug/ml [23]: 63% | Activity [24]: 32.6% | efflux ratio at 2 h, 2 µM [25]: 2.1 | Activity [26]: inactive | Cmax [27]: 25.9 ng/mL | half-life [28]: 4.15 h | remaining at 1 h, 10 ug/ml [29]: 77% | half-life [30]: 5.4 h | Activity [31]: Active | Activity [32]: 19% | Activity [33]: inactive | Activity [34]: Active | Activity [35]: 43.1% | Activity [36]: inactive | LD50 at 336 h [37]: > 20000 mg/kg
